Experimental data from ChEMBL document CHEMBL4196011, “The lead optimization of the polyamine conjugate of flavonoid with a naphthalene motif: Synthesis and biological evaluation” (Eur J Med Chem, 2018).

Tests used:
HCT-116 = experiment: Antiproliferative activity against human HCT116 cells after 48 hrs by MTT assay; format: functional, cell-based; conditions: HCT-116, 48 h
HepG2 = experiment: Antiproliferative activity against human HepG2 cells after 48 hrs by MTT assay; format: functional, cell-based; conditions: HepG2, 48 h
HeLa = experiment: Antiproliferative activity against human HeLa cells after 48 hrs by MTT assay; format: functional, cell-based
HT-29 = experiment: Antiproliferative activity against human HT-29 cells after 48 hrs by MTT assay; format: functional, cell-based; conditions: HT-29, 48 h
K562 = experiment: Antiproliferative activity against human K562 cells after 48 hrs by MTT assay; format: functional, cell-based; conditions: K562, 48 h
H22 [1] = experiment: Antitumor activity against […] xenografted in Kunming mouse assessed as tumor growth inhibition at 100 mg/kg, ig for 7 consecutive days measured on day 16; format: functional; conditions: H22, po, 384 h, read-out: TGI
Mus musculus [2] = experiment: Toxicity in Kunming mouse xenografted with […] H22 cells assessed as effect on kidney weight index at 100 mg/kg, ig administered for 7 consecutive days; format: organism-based; conditions: in vivo, po
Mus musculus [3] = experiment: Toxicity in Kunming mouse xenografted with […] H22 cells assessed as effect on body weight at 100 mg/kg, ig administered for 7 consecutive days; format: organism-based; conditions: in vivo, po
Mus musculus [4] = experiment: Toxicity in Kunming mouse xenografted with […] H22 cells assessed as effect on spleen weight index at 100 mg/kg, ig administered for 7 consecutive days; format: organism-based; conditions: in vivo, po
Mus musculus [5] = experiment: Toxicity in Kunming mouse xenografted with […] H22 cells assessed as effect on heart weight index at 100 mg/kg, ig administered for 7 consecutive days; format: organism-based; conditions: in vivo, po
Mus musculus [6] = experiment: Toxicity in Kunming mouse xenografted with […] H22 cells assessed as effect on liver weight index at 100 mg/kg, ig administered for 7 consecutive days; format: organism-based; conditions: in vivo, po
Mus musculus [7] = experiment: Toxicity in Kunming mouse xenografted with […] H22 cells assessed as effect on lung weight index at 100 mg/kg, ig administered for 7 consecutive days; format: organism-based; conditions: in vivo, po
H22 [8] = experiment: Antitumor activity against […] xenografted in Kunming mouse assessed as tumor growth inhibition at 10 mg/kg, iv for 7 consecutive days measured on day 16; format: functional; conditions: 384 h, read-out: TGI
[9] = Toxicity in iv dosed Kunming mouse assessed as maximum tolerated dose administered for 7 consecutive days; format: organism-based; conditions: in vivo
[10] = Toxicity in Kunming mouse assessed as maximum tolerated dose administered for 7 consecutive days; format: organism-based; conditions: in vivo

Row | Compound | IC50 (HCT-116) [µM] | IC50 (HepG2) [µM] | IC50 (HeLa) [µM] | IC50 (HT-29) [µM] | IC50 (K562) [µM] | other results
1 | COc1c(-c2ccc(-c3ccccc3)cc2)oc2c(CNCCCNCCCCN)cccc2c1=O | 14.8 | 22.2 | 13.9 | 31.4 | 15.8 | 
2 | O=c1c(O)c(-c2ccc(O)c(O)c2)oc2cc(O)cc(O)c12 [QUERCETIN] |  |  |  |  |  | inhibition in vivo at 100 mg/kg (H22 [1]): 34.3 to 38.7%; Activity (Mus musculus [2]): Non-Toxic; Activity (Mus musculus [3]): Non-Toxic; Activity (Mus musculus [4]): Non-Toxic; Activity (Mus musculus [5]): Non-Toxic; Activity (Mus musculus [6]): Non-Toxic; Activity (Mus musculus [7]): Non-Toxic
3 | O=C1c2c(O)ccc(O)c2C(=O)c2c(NCCNCCO)ccc(NCCNCCO)c21 [MITOXANTRONE] | 1.61 | 18.6 | 2.35 | 21.7 | 4.55 | 
4 | COc1c(-c2ccc(-c3ccccc3)cc2)oc2c(CNCCCN)cccc2c1=O.Cl.Cl | 5.1 | 10.4 | 7.8 | 8.25 | 9.3 | inhibition in vivo at 10 mg/kg (H22 [8]): 31.5%; MTD at 7 days [9]: 15 mg/kg
5 | NCCCNCc1c(-c2ccc(-c3ccccc3)cc2)oc2ccccc2c1=O | 23.4 | > 50 | 20.5 | 24.7 | 41.6 | 
6 | Cl.Cl.NCCCNCC(=O)NCc1cccc2c(=O)cc(-c3cccc4ccccc34)oc12 |  |  |  |  |  | MTD at 7 days [10]: 20 mg/kg

The next lines start with results.

Row | IC50 (HCT-116) [µM] | IC50 (HepG2) [µM] | IC50 (HeLa) [µM] | IC50 (HT-29) [µM] | IC50 (K562) [µM] | Compound | other results
7 | 16.4 | 16.2 | 10.3 | 16.1 | 24.4 | COc1c(-c2ccc(-c3ccccc3)cc2)oc2c(CNCCCCN)cccc2c1=O | 
8 | 12.8 | 15.1 | 11.2 | 23.1 | 19.2 | COc1ccc2cc(-c3oc4c(CNCCCN)cccc4c(=O)c3OC)ccc2c1Br | 
9 | 19.3 | 14.3 | 9.63 | 21.8 | 18.5 | COc1ccc2cc(-c3oc4c(CNCCCCNCCCCN)cccc4c(=O)c3OC)ccc2c1Br | 
10 | 20.1 | 24.4 | 18.6 | 25.6 | 19.8 | COc1c(-c2ccc(-c3ccccc3)cc2)oc2c(CNCCCCNCCCCN)cccc2c1=O | 
11 | 24.1 | 19.9 | 18.7 | 18.9 | 25.9 | COc1c(-c2ccc(-c3ccccc3)cc2)oc2c(CNCCN)cccc2c1=O | 
